Results reported in PubChem BioAssay AID2060882 (Molecular Pharmacology Branch, DTP, NCI, 2025).

Tested on: 898857-211-R-J1-PDC complex spheroids, growth % test/control
Assay: Anticancer human tumor 898857-211-R-J1-PDC patient-derived melanoma cell line growth inhibition [RAS]
Settings: for IC50: curve of first compound; for viability, T/C: stronger effect = lower value
How it was run: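 Tumour cells grown as complex spheroids with HUVEC endothelial cells and mesenchymal stem cells, treated with RAS pathway inhibitor combinations. Each agent spans half-log steps from near clinical Cmax, or 10 microM where Cmax is unknown.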

[1] = second compound 0.00316 µM, first compound 0.0316 µM
[2] = second compound 0.00316 µM, first compound 0.1 µM
[3] = second compound 0.00316 µM, first compound 0.316 µM
[4] = second compound 0.00316 µM, first compound 1 µM
[5] = second compound 0.00316 µM, first compound 3.16 µM
[6] = second compound 0.00316 µM, first compound 10 µM
[7] = second compound 0.01 µM, first compound 0.0316 µM
[8] = second compound 0.01 µM, first compound 0.1 µM
[9] = second compound 0.01 µM, first compound 0.316 µM
[10] = second compound 0.01 µM, first compound 1 µM
[11] = second compound 0.01 µM, first compound 3.16 µM
[12] = second compound 0.01 µM, first compound 10 µM
[13] = second compound 0.0316 µM, first compound 0.0316 µM
[14] = second compound 0.0316 µM, first compound 0.1 µM
[15] = second compound 0.0316 µM, first compound 0.316 µM
[16] = second compound 0.0316 µM, first compound 1 µM
[17] = second compound 0.0316 µM, first compound 3.16 µM
[18] = second compound 0.0316 µM, first compound 10 µM
[19] = second compound 0.1 µM, first compound 0.0316 µM
[20] = second compound 0.1 µM, first compound 0.1 µM
[21] = second compound 0.1 µM, first compound 0.316 µM
[22] = second compound 0.1 µM, first compound 1 µM
[23] = second compound 0.1 µM, first compound 3.16 µM
[24] = second compound 0.1 µM, first compound 10 µM
[25] = second compound 0.316 µM, first compound 0.0316 µM
[26] = second compound 0.316 µM, first compound 0.1 µM
[27] = second compound 0.316 µM, first compound 0.316 µM
[28] = second compound 0.316 µM, first compound 1 µM
[29] = second compound 0.316 µM, first compound 3.16 µM
[30] = second compound 0.316 µM, first compound 10 µM
[31] = second compound 1 µM, first compound 0.0316 µM
[32] = second compound 1 µM, first compound 0.1 µM
[33] = second compound 1 µM, first compound 0.316 µM
[34] = second compound 1 µM, first compound 1 µM
[35] = second compound 1 µM, first compound 3.16 µM
[36] = second compound 1 µM, first compound 10 µM
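Further: spheroids exposed to compound for seven days before readout.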
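Wherever viability, T/C is given: 100% = DMSO vehicle control wells.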

CC1(O)CCCC1n1c(=O)c(C(F)F)cc2cnc(NC3CCN(S(C)(=O)=O)CC3)nc21 (stereo unspecified) + C=CC(=O)N1CCN(c2nc(OCC3CCCN3C)nc3c(F)c(-c4nc(N)cc(C)c4C(F)(F)F)c(Cl)cc23)C(C)C1
IC50 (second compound 0.00316 µM): 0.228 µM
IC50 (second compound 0.01 µM): 0.3 µM
IC50 (second compound 0.0316 µM): 0.252 µM
IC50 (second compound 0.1 µM): 0.286 µM
IC50 (second compound 0.316 µM): 0.315 µM
IC50 (second compound 1 µM): 0.23 µM
viability, T/C [1]: 103%
viability, T/C [2]: 57.7%
viability, T/C [3]: 45.6%
viability, T/C [4]: 43.5%
viability, T/C [5]: 47.1%
viability, T/C [6]: 19.7%
viability, T/C [7]: 75.3%
viability, T/C [8]: 61%
viability, T/C [9]: 39%
viability, T/C [10]: 44.9%
viability, T/C [11]: 39.7%
viability, T/C [12]: 17.4%
viability, T/C [13]: 87.6%
viability, T/C [14]: 57.1%
viability, T/C [15]: 42.4%
viability, T/C [16]: 45.6%
viability, T/C [17]: 43.7%
viability, T/C [18]: 19.3%
viability, T/C [19]: 92.1%
viability, T/C [20]: 55.5%
viability, T/C [21]: 47.9%
viability, T/C [22]: 46.1%
viability, T/C [23]: 47.7%
viability, T/C [24]: 18.6%
viability, T/C [25]: 109%
viability, T/C [26]: 67%
viability, T/C [27]: 46%
viability, T/C [28]: 44.7%
viability, T/C [29]: 45.2%
viability, T/C [30]: 17.5%
viability, T/C [31]: 115%
viability, T/C [32]: 59.5%
viability, T/C [33]: 46.3%
viability, T/C [34]: 36%
viability, T/C [35]: 42.8%
viability, T/C [36]: 10.9%

CCN1CCN(Cc2ccc(Nc3ncc(F)c(-c4cc(F)c5nc(C)n(C(C)C)c5c4)n3)nc2)CC1 + C=CC(=O)N1CCN(c2nc(OCC3CCCN3C)nc3c(F)c(-c4nc(N)cc(C)c4C(F)(F)F)c(Cl)cc23)C(C)C1
IC50 (second compound 0.00316 µM): 0.366 µM
IC50 (second compound 0.01 µM): 0.313 µM
IC50 (second compound 0.0316 µM): 0.377 µM
IC50 (second compound 0.1 µM): 0.49 µM
IC50 (second compound 0.316 µM): > 1 µM
IC50 (second compound 1 µM): 0.309 µM
viability, T/C (second compound 0.00316 µM, first compound 0.00316 µM): 106%
viability, T/C (second compound 0.00316 µM, first compound 0.01 µM): 106%
viability, T/C [1]: 95.4%
viability, T/C [2]: 72.2%
viability, T/C [3]: 52.4%
viability, T/C [4]: 41.2%
viability, T/C (second compound 0.01 µM, first compound 0.00316 µM): 101%
viability, T/C (second compound 0.01 µM, first compound 0.01 µM): 106%
viability, T/C [7]: 86.6%
viability, T/C [8]: 80.2%
viability, T/C [9]: 45.7%
viability, T/C [10]: 40.2%
viability, T/C (second compound 0.0316 µM, first compound 0.00316 µM): 121%
viability, T/C (second compound 0.0316 µM, first compound 0.01 µM): 102%
viability, T/C [13]: 83.4%
viability, T/C [14]: 77%
viability, T/C [15]: 45.6%
viability, T/C [16]: 39.2%
viability, T/C (second compound 0.1 µM, first compound 0.00316 µM): 118%
viability, T/C (second compound 0.1 µM, first compound 0.01 µM): 96.4%
viability, T/C [19]: 98.2%
viability, T/C [20]: 79.2%
viability, T/C [21]: 56.4%
viability, T/C [22]: 36.3%
viability, T/C (second compound 0.316 µM, first compound 0.00316 µM): 112%
viability, T/C (second compound 0.316 µM, first compound 0.01 µM): 117%
viability, T/C [25]: 91.8%
viability, T/C [26]: 64.8%
viability, T/C [27]: 59%
viability, T/C [28]: 50.9%
viability, T/C (second compound 1 µM, first compound 0.00316 µM): 122%
viability, T/C (second compound 1 µM, first compound 0.01 µM): 114%
viability, T/C [31]: 102%
viability, T/C [32]: 67.4%
viability, T/C [33]: 53.8%
viability, T/C [34]: 38%

C[C@@H](NC(=O)c1ncnc(N)c1Cl)c1ncc(C(=O)Nc2cc(C(F)(F)F)c(Cl)cn2)s1 + C=CC(=O)N1CCN(c2nc(OCC3CCCN3C)nc3c(F)c(-c4nc(N)cc(C)c4C(F)(F)F)c(Cl)cc23)C(C)C1
IC50 (second compound 0.00316 µM): 5.85 µM
IC50 (second compound 0.01 µM): 5.33 µM
IC50 (second compound 0.0316 µM): 5.77 µM
IC50 (second compound 0.1 µM): 5.34 µM
IC50 (second compound 0.316 µM): 6.67 µM
IC50 (second compound 1 µM): 5.12 µM
viability, T/C [1]: 127%
viability, T/C [2]: 120%
viability, T/C [3]: 111%
viability, T/C [4]: 80.8%
viability, T/C [5]: 63.6%
viability, T/C [6]: 40%
viability, T/C [7]: 124%
viability, T/C [8]: 116%
viability, T/C [9]: 103%
viability, T/C [10]: 90.9%
viability, T/C [11]: 68.5%
viability, T/C [12]: 27.7%
viability, T/C [13]: 130%
viability, T/C [14]: 123%
viability, T/C [15]: 112%
viability, T/C [16]: 89.3%
viability, T/C [17]: 71.2%
viability, T/C [18]: 32.6%
viability, T/C [19]: 124%
viability, T/C [20]: 110%
viability, T/C [21]: 118%
viability, T/C [22]: 92.1%
viability, T/C [23]: 61.7%
viability, T/C [24]: 36.8%
viability, T/C [25]: 123%
viability, T/C [26]: 135%
viability, T/C [27]: 114%
viability, T/C [28]: 96.3%
viability, T/C [29]: 70.8%
viability, T/C [30]: 39.1%
viability, T/C [31]: 132%
viability, T/C [32]: 136%
viability, T/C [33]: 111%
viability, T/C [34]: 98.5%
viability, T/C [35]: 57.5%
viability, T/C [36]: 36.7%
